# According to patent US9663530B2, “5-oxa-2-azabicyclo[2.2.2]OCTAN-4-yl and 5-oxa-2-azabicyclo[2.2.1]heptan-4-yl derivatives” (Hoffmann-La Roche Inc., priority 2014, dated 2017):
# Columns and labels:
# [1] = biological target: rat TAAR1 (Rattus norvegicus (Rat), UniProt Q923Y9); assay: Radioligand binding assay on rat TAAR1; conditions: rat TAAR1 (second value of the cell); membranes of HEK-293 cells stably expressing rat TAAR1; read-out: Ki (μM) mouse/rat
# How it was run: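 Membranes from HEK293 cells stably expressing rat TAAR1 were incubated 1 h at 4 °C, in duplicate, with the tritiated oxazol-2-ylamine radioligand added at 3.3×Kd (Kd set per membrane batch by saturation). Buffer was 20 mM HEPES-NaOH pH 7.4, 10 mM MgCl2, 2 mM CaCl2; filtration and scintillation counting followed. […]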
# [2] = biological target: mouse TAAR1 (Mus musculus (Mouse), UniProt Q923Y8); assay: Radioligand binding assay on mouse TAAR1; conditions: mouse TAAR1 (first value of the cell); membranes of HEK-293 cells stably expressing mouse TAAR1; read-out: Ki (μM) mouse/rat
# mouse TAAR1, sequence (Q923Y8 whole entry): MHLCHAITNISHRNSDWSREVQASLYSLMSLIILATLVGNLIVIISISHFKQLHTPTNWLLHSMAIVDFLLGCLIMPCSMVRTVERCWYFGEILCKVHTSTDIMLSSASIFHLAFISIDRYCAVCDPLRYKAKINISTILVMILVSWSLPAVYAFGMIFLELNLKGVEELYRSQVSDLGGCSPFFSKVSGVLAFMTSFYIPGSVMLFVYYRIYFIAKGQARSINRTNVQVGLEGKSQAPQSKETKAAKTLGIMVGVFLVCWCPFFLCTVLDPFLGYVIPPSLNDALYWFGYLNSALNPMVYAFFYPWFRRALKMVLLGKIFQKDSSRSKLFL
# rat TAAR1, sequence (Q923Y9 whole entry): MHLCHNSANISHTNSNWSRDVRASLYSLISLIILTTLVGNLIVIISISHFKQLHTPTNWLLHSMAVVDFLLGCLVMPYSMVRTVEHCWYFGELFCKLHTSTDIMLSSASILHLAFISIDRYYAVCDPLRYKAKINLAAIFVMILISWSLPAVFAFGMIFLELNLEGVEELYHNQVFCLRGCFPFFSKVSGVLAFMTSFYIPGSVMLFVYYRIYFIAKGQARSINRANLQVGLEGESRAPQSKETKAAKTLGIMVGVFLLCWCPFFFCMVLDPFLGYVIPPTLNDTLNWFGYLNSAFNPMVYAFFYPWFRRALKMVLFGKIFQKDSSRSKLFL
SMILES,Ki [1],Ki [2]
"CCCc1n[nH]c(C(=O)Nc2ccc(C34CCC(CO3)NC4)cc2)c1Cl (racemic) [Example 34, (RS)-4-Chloro-N-[4-(5-oxa-2-azabicyclo[2.2.2]octan-4-yl)phenyl]-3-propyl-1H-pyrazole-5-carboxamide]",0.0973 µM,0.0135 µM
"O=C(Nc1ccc(C[C@@]23CN[C@@H](CO2)C3)cc1)Nc1ccc(C(F)(F)F)cc1 [Example 22, 1-[4-[[(1R,4R)-5-Oxa-2-azabicyclo[2.2.1]heptan-4-yl]methyl]phenyl]-3-[4-(trifluoromethyl)phenyl]urea]",0.0237 µM,0.0126 µM
"CCCc1n[nH]c(C(=O)Nc2ccc(C[C@]34CN[C@H](CO3)C4)cc2)c1Cl [Example 16, 4-Chloro-N-[4-[[(1 S,4S)-5-oxa-2-azabicyclo[2.2.1]heptan-4-yl]methyl]phenyl]-3-propyl-1H-pyrazole-5-carboxamide]",0.277 µM,0.476 µM
"FC(F)(F)c1nccc(Nc2ccc([C@]34CN[C@H](CO3)C4)cc2)n1 [Example 62, N-[4-[(1S,4R)-5-Oxa-2-azabicyclo[2.2.1]heptan-4-yl]phenyl]-2-(trifluoromethyl)pyrimidin-4-amine]",0.233 µM,0.144 µM
"O=C(Nc1ccc(C[C@]23CN[C@H](CO2)C3)cc1)c1cnc(C2CC2)nc1 [Example 28, 2-Cyclopropyl-N-[4-[[(1S,4S)-5-oxa-2-azabicyclo[2.2.1]heptan-4-yl]methyl]phenyl]pyrimidine-5-carboxamide]",1.58 µM,0.36 µM
"FC(F)(F)c1ccc(Nc2ccc(C34CCC(CO3)NC4)cc2)nc1 (racemic) [Example 4, (RS)—N-[4-(5-Oxa-2-azabicyclo[2.2.2]octan-4-yl)phenyl]-5-(trifluoromethyl)pyridin-2-amine]",0.328 µM,0.0111 µM
"O=C(Nc1ccc(C23CCC(CO2)NC3)cc1)Nc1cccc(Cl)c1 (racemic) [Example 68, (RS)-1-(3-Chlorophenyl)-3-[4-(5-oxa-2-azabicyclo[2.2.2]octan-4-yl)phenyl]urea]",0.0681 µM,0.0119 µM
"Clc1ccc(Nc2ccc([C@]34CN[C@H](CO3)C4)cc2)nc1 [Example 7, 5-Chloro-N-[4-[(1S,4R)-5-oxa-2-azabicyclo[2.2.1]heptan-4-yl]phenyl]pyridin-2-amine]",0.309 µM,0.0414 µM
"CCOc1ccc(C(=O)Nc2ccc(C[C@@]34CN[C@@H](CO3)C4)cc2)cn1 [Example 46, 6-Ethoxy-N-[4-[[(1R,4R)-5-oxa-2-azabicyclo[2.2.1]heptan-4-yl]methyl]phenyl]pyridine-3-carboxamide]",0.448 µM,0.0142 µM
"O=C(Nc1ccc(C[C@]23CN[C@H](CO2)C3)cc1)c1ccnc(C(F)(F)F)c1 [Example 18, N-[4-[[(1S,4S)-5-Oxa-2-azabicyclo[2.2.1]heptan-4-yl]methyl]phenyl]-2-(trifluoromethyl)pyridine-4-carboxamide]",0.354 µM,0.238 µM
"FC(F)(F)c1nccc(Nc2ccc(C34CCC(CO3)NC4)cc2)n1 (centres unmarked) [Example 36, N-[4-(5-Oxa-2-azabicyclo[2.2.2]octan-4-yl)phenyl]-2-(trifluoromethyl)pyrimidin-4-amine]",1.97 µM,0.0471 µM
"O=C(Nc1ccc([C@@]23CN[C@@H](CO2)C3)cc1)c1cccc(Cl)c1 [Example 55, 3-Chloro-N-[4-[(1R,4S)-5-oxa-2-azabicyclo[2.2.1]heptan-4-yl]phenyl]benzamide]",0.964 µM,0.0036 µM
"O=C(Nc1ccc(C[C@]23CN[C@H](CO2)C3)cc1)c1ccc(OCC2CC2)cc1 [Example 25, 4-(Cyclopropylmethoxy)-N-[4-[[(1S,4S)-5-oxa-2-azabicyclo[2.2.1]heptan-4-yl]methyl]phenyl]benzamide]",0.0175 µM,0.168 µM
"CCOc1ccc(C(=O)Nc2ccc(C34CCC(CO3)NC4)cc2)cc1 (centres unmarked) [Example 53, 4-Ethoxy-N-[4-(5-oxa-2-azabicyclo[2.2.2]octan-4-yl)phenyl]benzamide]",1.98 µM,0.0156 µM
"O=C(Nc1ccc(C[C@@]23CN[C@@H](CO2)C3)cc1)c1cccc(Cl)c1 [Example 39, 3-Chloro-N-[4-[[(1R,4R)-5-oxa-2-azabicyclo[2.2.1]heptan-4-yl]methyl]phenyl]benzamide]",0.0551 µM,0.0022 µM
"O=C(Nc1ccc(C[C@@]23CN[C@@H](CO2)C3)cc1)c1ccc(OCC(F)(F)F)nc1 [Example 47, N-[4-[[(1R,4R)-5-Oxa-2-azabicyclo[2.2.1]heptan-4-yl]methyl]phenyl]-6-(2,2,2-trifluoroethoxy)pyridine-3-carboxamide]",0.0104 µM,0.0104 µM
"FC(F)(F)c1cnc(Nc2ccc(C34CCC(CO3)NC4)cc2)cn1 (racemic) [Example 64, (RS)—N-[4-(5-Oxa-2-azabicyclo[2.2.2]octan-4-yl)phenyl]-5-(trifluoromethyl)pyrazin-2-amine]",7.68 µM,0.03 µM
"FC(F)(F)c1cnc(Nc2ccc(C34CCC(CO3)NC4)cc2)nc1 (racemic) [Example 65, (RS)—N-[4-(5-Oxa-2-azabicyclo[2.2.2]octan-4-yl)phenyl]-5-(trifluoromethyl)pyrimidin-2-amine]",3.84 µM,0.122 µM
"O=C(Nc1ccc(C[C@@]23CN[C@@H](CO2)C3)cc1)c1[nH]nc(C2CC2)c1Cl [Example 48, 4-Chloro-3-cyclopropyl-N-[4-[[(1R,4R)-5-oxa-2-azabicyclo[2.2.1]heptan-4-yl]methyl]phenyl]-1H-pyrazole-5-carboxamide]",0.112 µM,0.0147 µM
"O=C(Nc1ccc(C[C@@]23CN[C@@H](CO2)C3)cc1)c1ccnc(C(F)(F)F)c1 [Example 40, N-[4-[[(1R,4R)-5-Oxa-2-azabicyclo[2.2.1]heptan-4-yl]methyl]phenyl]-2-(trifluoromethyl)pyridine-4-carboxamide]",0.0987 µM,0.0522 µM
"O=C(Nc1ccc(C[C@]23CN[C@H](CO2)C3)cc1)c1[nH]nc(C2CC2)c1Cl [Example 29, 4-Chloro-3-cyclopropyl-N-[4-[[(1 S,4S)-5-oxa-2-azabicyclo[2.2.1]heptan-4-yl]methyl]phenyl]-1H-pyrazole-5-carboxamide]",0.633 µM,0.476 µM
"CCOc1ccc(C(=O)Nc2ccc(C34CCC(CO3)NC4)cc2)cn1 (racemic) [Example 12, (RS)-6-Ethoxy-N-[4-(5-oxa-2-azabicyclo[2.2.2]octan-4-yl)phenyl]pyridine-3-carboxamide]",7.06 µM,0.0219 µM
